Reference: paper PMC8330742, “New benzothieno[2,3-c]pyridines as non-steroidal CYP17 inhibitors: design, synthesis, anticancer screening, apoptosis induction, and in silico ADME profile studies” (Journal of Enzyme Inhibition and Medicinal Chemistry, 2021)

Experiments:
HCT-116 = test: NCI-60 SRB screen; type: cell-based, human; details: Homo sapiens; HCT-116; single dose 10^−5 M; read-out: Growth inhibition (%)
MOLT-4 = test: NCI-60 SRB screen; type: cell-based; details: Homo sapiens; MOLT-4; single dose 10^−5 M; read-out: Growth inhibition (%)
SK-OV-3 = test: NCI-60 SRB screen; type: cell-based, human; details: Homo sapiens; SK-OV-3; single dose 10^−5 M; read-out: Growth inhibition (%)
HT-29 = test: NCI-60 SRB screen; type: cell-based; details: Homo sapiens; HT-29; single dose 10^−5 M; read-out: Growth inhibition (%)
SK-MEL-2 = test: NCI-60 SRB screen; type: cell-based, human; details: Homo sapiens; SK-MEL-2; single dose 10^−5 M; read-out: Growth inhibition (%)
NCI/ADR-RES = test: NCI-60 SRB screen; type: cell-based, human; details: Homo sapiens, single dose 10^−5 M, read-out: Growth inhibition (%)
HCT-15 = test: NCI-60 SRB screen; type: cell-based, human; details: Homo sapiens; HCT-15; single dose 10^−5 M; read-out: Growth inhibition (%)
HOP-62 = test: NCI-60 SRB screen; type: cell-based, human; details: Homo sapiens; HOP-62; single dose 10^−5 M; read-out: Growth inhibition (%)
A549/ATCC = test: NCI-60 SRB screen; type: cell-based, human; details: Homo sapiens, single dose 10^−5 M, read-out: Growth inhibition (%)
ACHN = test: NCI-60 SRB screen; type: cell-based; details: Homo sapiens, single dose 10^−5 M, read-out: Growth inhibition (%)
LOX IMVI = test: NCI-60 SRB screen; type: cell-based, human; details: Homo sapiens, single dose 10^−5 M, read-out: Growth inhibition (%)
KM12 = test: NCI-60 SRB screen; type: cell-based, human; details: Homo sapiens; KM12; single dose 10^−5 M; read-out: Growth inhibition (%)
HL-60(TB) = test: NCI-60 SRB screen; type: cell-based, human; details: Homo sapiens; HL-60 (TB); single dose 10^−5 M; read-out: Growth inhibition (%)
SK-MEL-28 = test: NCI-60 SRB screen; type: cell-based; details: Homo sapiens; SK-MEL-28; single dose 10^−5 M; read-out: Growth inhibition (%)
OVCAR-3 = test: NCI-60 SRB screen; type: cell-based, human; details: Homo sapiens; OVCAR-3; single dose 10^−5 M; read-out: Growth inhibition (%)
UACC-257 = test: NCI-60 SRB screen; type: cell-based, human; details: Homo sapiens, UACC-257; UACC-275 (so in the source); single dose 10^−5 M; read-out: Growth inhibition (%)
UACC-62 = test: NCI-60 SRB screen; type: cell-based, human; details: Homo sapiens; UACC-62; single dose 10^−5 M; read-out: Growth inhibition (%)
NCI-H226 = test: NCI-60 SRB screen; type: cell-based, human; details: Homo sapiens; NCI-H226; single dose 10^−5 M; read-out: Growth inhibition (%)
SN12C = test: NCI-60 SRB screen; type: cell-based, human; details: Homo sapiens, SN12C; SN 12 C; single dose 10^−5 M; read-out: Growth inhibition (%)
SR = test: NCI-60 SRB screen; type: cell-based; details: Homo sapiens, single dose 10^−5 M, read-out: Growth inhibition (%)
CAKI-1 = test: NCI-60 SRB screen; type: cell-based, human; details: Homo sapiens; CAKI-1; single dose 10^−5 M; read-out: Growth inhibition (%)
NCI-H23 = test: NCI-60 SRB screen; type: cell-based, human; details: Homo sapiens; NCI-H23; single dose 10^−5 M; read-out: Growth inhibition (%)
COLO 205 = test: NCI-60 SRB screen; type: cell-based, human; details: Homo sapiens; COLO 205; single dose 10^−5 M; read-out: Growth inhibition (%)
MALME-3M = test: NCI-60 SRB screen; type: cell-based, human; details: Homo sapiens, single dose 10^−5 M, read-out: Growth inhibition (%)
MDA-MB-435 = test: NCI-60 SRB screen; type: cell-based; details: Homo sapiens, MDA-MB-435, read-out: Growth inhibition (%)
UO-31 = test: NCI-60 SRB screen; type: cell-based, human; details: Homo sapiens; UO-31; single dose 10^−5 M; read-out: Growth inhibition (%)
SF-295 = test: NCI-60 SRB screen; type: cell-based, human; details: Homo sapiens; SF-295; single dose 10^−5 M; read-out: Growth inhibition (%)
K-562 = test: NCI-60 SRB screen; type: cell-based, human; details: Homo sapiens, K562; K-562; single dose 10^−5 M; read-out: Growth inhibition (%)
HOP-92 = test: NCI-60 SRB screen; type: cell-based, human; details: Homo sapiens; HOP-92; single dose 10^−5 M; read-out: Growth inhibition (%)
NCI-H322M = test: NCI-60 SRB screen; type: cell-based, human; details: Homo sapiens, single dose 10^−5 M, read-out: Growth inhibition (%)
SK-MEL-5 = test: NCI-60 SRB screen; type: cell-based, human; details: Homo sapiens; SK-MEL-5; single dose 10^−5 M; read-out: Growth inhibition (%)
TK-10 = test: NCI-60 SRB screen; type: cell-based, human; details: Homo sapiens; TK-10; single dose 10^−5 M; read-out: Growth inhibition (%)
CCRF-CEM = test: NCI-60 SRB screen; type: cell-based; details: Homo sapiens, single dose 10^−5 M, read-out: Growth inhibition (%)
NCI-H522 = test: NCI-60 SRB screen; type: cell-based, human; details: Homo sapiens; NCI-H522; single dose 10^−5 M; read-out: Growth inhibition (%)
NCI-H460 = test: NCI-60 SRB screen; type: cell-based, human; details: Homo sapiens; NCI-H460; single dose 10^−5 M; read-out: Growth inhibition (%)
HCC-2998 = test: NCI-60 SRB screen; type: cell-based, human; details: Homo sapiens; HCC-2998; single dose 10^−5 M; read-out: Growth inhibition (%)
786-0 = test: NCI-60 SRB screen; type: cell-based; details: Homo sapiens; 786-0; single dose 10^−5 M; read-out: Growth inhibition (%)
M14 = test: NCI-60 SRB screen; type: cell-based, human; details: Homo sapiens; M14; single dose 10^−5 M; read-out: Growth inhibition (%)
IGROV1 = test: NCI-60 SRB screen; type: cell-based, human; details: Homo sapiens, IGROV-1; IGROV1; single dose 10^−5 M; read-out: Growth inhibition (%)
SF-268 = test: NCI-60 SRB screen; type: cell-based, human; details: Homo sapiens; SF-268; single dose 10^−5 M; read-out: Growth inhibition (%)
EKVX = test: NCI-60 SRB screen; type: cell-based, human; details: Homo sapiens, single dose 10^−5 M, read-out: Growth inhibition (%)
RXF 393 = test: NCI-60 SRB screen; type: cell-based, human; details: Homo sapiens; RXF 393; single dose 10^−5 M; read-out: Growth inhibition (%)
OVCAR-4 = test: NCI-60 SRB screen; type: cell-based, human; details: Homo sapiens; OVCAR-4; single dose 10^−5 M; read-out: Growth inhibition (%)
SW-620 = test: NCI-60 SRB screen; type: cell-based; details: Homo sapiens; SW-620; single dose 10^−5 M; read-out: Growth inhibition (%)
[1] = test system: panel of 60 cancer cell lines; test: NCI-60 SRB screen, mean or range over the panel; type: cell-based, human; details: Homo sapiens; mean over the cell lines; single dose 10^−5 M; read-out: Mean growth inhibition (%)

## O=C1NC(c2cccc([N+](=O)[O-])c2)c2sc3c(F)cccc3c2C1N1CCCCC1 (stereo not drawn) [Compound 6c, 8-Fluoro-1-(3-nitrophenyl)-4-(piperidin-1-yl)-1,2-dihydro[1]benzothieno [2,3-c]pyridin-3(4H)-one]
HCT-116
  inhibition at 10 µM: 20.6%
MOLT-4
  inhibition at 10 µM: 8.91%
SK-OV-3
  inhibition at 10 µM: -0.84%
HT-29
  inhibition at 10 µM: 9%
SK-MEL-2
  inhibition at 10 µM: -8.06%
NCI/ADR-RES
  inhibition at 10 µM: -1.66%
HCT-15
  inhibition at 10 µM: 3.74%
HOP-62
  inhibition at 10 µM: 11.5%
A549/ATCC
  inhibition at 10 µM: -0.32%
ACHN
  inhibition at 10 µM: 9.32%
LOX IMVI
  inhibition at 10 µM: 2.5%
KM12
  inhibition at 10 µM: 2.91%
HL-60(TB)
  inhibition at 10 µM: -17%
SK-MEL-28
  inhibition at 10 µM: -12.4%
OVCAR-3
  inhibition at 10 µM: -2.74%
UACC-257
  inhibition at 10 µM: -6.77%
UACC-62
  inhibition at 10 µM: 4.85%
NCI-H226
  inhibition at 10 µM: 8.71%
SN12C
  inhibition at 10 µM: 2.45%
SR
  inhibition at 10 µM: 0.3%
CAKI-1
  inhibition at 10 µM: 17.6%
NCI-H23
  inhibition at 10 µM: 5.16%
COLO 205
  inhibition at 10 µM: -12.7%
MALME-3M
  inhibition at 10 µM: -1.85%
MDA-MB-435
  inhibition at 10 µM: -8.63%
UO-31
  inhibition at 10 µM: 32.2%
SF-295
  inhibition at 10 µM: 2.28%
K-562
  inhibition at 10 µM: 6.11%
HOP-92
  inhibition at 10 µM: 14.1%
NCI-H322M
  inhibition at 10 µM: 2.6%
SK-MEL-5
  inhibition at 10 µM: 1.15%
TK-10
  inhibition at 10 µM: -42.2%
CCRF-CEM
  inhibition at 10 µM: 1.84%
NCI-H522
  inhibition at 10 µM: 14%
NCI-H460
  inhibition at 10 µM: -0.58%
HCC-2998
  inhibition at 10 µM: 2.82%
786-0
  inhibition at 10 µM: -6.36%
M14
  inhibition at 10 µM: 1.9%
IGROV1
  inhibition at 10 µM: 20.7%
SF-268
  inhibition at 10 µM: 2.64%
EKVX
  inhibition at 10 µM: 5.86%
RXF 393
  inhibition at 10 µM: 6.16%
OVCAR-4
  inhibition at 10 µM: -4.39%
SW-620
  inhibition at 10 µM: 7.46%
[1]
  inhibition at 10 µM: 2.54%
